Measured values published in US20250367171A1, “THERAPEUTIC OR PROPHYLACTIC AGENT FOR PERIPHERAL NEUROPATHIES” (Toray Industries, Inc., priority 2017, published 2025).

What was measured:
[1] = system: rat bortezomib-induced peripheral neuropathy model; assay: Mechanical allodynia (von Frey test) in rat bortezomib-induced peripheral neuropathy model; format: in vivo; details: 20 mg/kg oral single dose, day 15, 3 hours after administration, vs vehicle group
Protocol: Bortezomib (0.2 mg/kg, AdooQ BioScience) was intraperitoneally administered 4 times in total to SD rats (6 weeks old, male; CHARLES RIVER LABORATORIES JAPAN, INC.) on days 1, 4, 8 and 11 after induction of pathological conditions, thereby preparing a bortezomib-induced peripheral neuropathy model. Here, the initial day of administration was designated as the 1st day (Day1) after induction of pathological conditions. Bortezomib was dissolved in dimethyl sulfoxide, and then Tween80 was added. Subsequently, water for injection was added to prepare a 0.2 mg/mL solution. The final concentration of dimethyl sulfoxide and that of Tween80 were each 5%.
On day 15 after induction of pathological conditions, a solution containing compound 1 (20 mg/kg) or a solvent thereof (water for injection) was orally administered to rats. Groups were composed of 2 groups: a solvent administration group (vehicle group) and a compound 1 (20 mg/kg) administration group.
Beneficial effects on mechanical allodynia were evaluated in a manner similar to Example 5, and this evaluation was performed before and on day 15 after induction of pathological conditions (3 hours after administration of compound 1).

[2] = system: fetal rat dorsal root ganglion-derived established neuronal cell line ND15; assay: Repair effect on cisplatin-induced cell damage (cell viability), post-treatment; format: cell-based; details: ND15 cells, 24 hours cisplatin, then 2 hours post-treatment with compound 1 at 0.5, 5 or 50 μM
Protocol: A fetal rat dorsal root ganglion-derived established neuronal cell line ND15 was cultured in 10% FBS-containing DMEM. On the next day, the cells were cultured in 10% FBS-containing DMEM containing EC23 (10 μM, Reinner) for 8 days, for differentiation into neurons.
For measurement of cell viability, the medium was exchanged with DMEM/F12 medium containing alamarBlue (Invitrogen), followed by 2 hours of culture, and then the absorbance at wavelength of 570 nm and the absorbance at wavelength of 595 nm were measured. Cell viability was calculated using the ratio of the absorbance at wavelength of 570 nm to the absorbance at wavelength of 595 nm and the untreated group designated as 100%.
In a manner similar to Example 1, cell damage was induced to a fetal rat dorsal root ganglion-derived established neuronal cell line ND15 by the use of cisplatin, and then the cell viability was measured. After 24 hours of treatment with cisplatin, compound 1 was contained in a medium for 2 hours of treatment (final concentration of 0.5, 5 or 50 μM). Groups were composed of 6 groups: an untreated group; a 50 μM compound 1 treatment group; a cisplatin treatment group; a cisplatin and 0.5 μM compound 1 treatment group; a cisplatin and 5 μM compound 1 treatment group; and a cisplatin and 50 μM compound 1 treatment group.

[3] = system: rat experimental autoimmune neuritis (EAN) model; assay: Rat experimental autoimmune neuritis (EAN) model: clinical scores, body weight, histopathology; format: in vivo
Protocol: A method of preparing EAN model rats is as described below. Peripheral myelin protein P2 peptide 57-81 (synthesized at Toray Research Center, Inc.) was dissolved in physiological saline (Otsuka Pharmaceutical Factory, Inc.) to prepare a 2 mg/mL solution. The solution and 2 mg/mL complete Freund's adjuvant (Difco Laboratories) containing killed Mycobacterium tuberculosis H37Ra were mixed in equal amounts, thereby preparing an emulsion which was a peptide solution for administration. The peptide solution for administration (200 μL) was administered subcutaneously to the base of the tail of each Lewis rat (6 to 7 weeks old, male; CHARLES RIVER LABORATORIES JAPAN, INC.) under anesthesia, thereby preparing the EAN model. The day of administration of the peptide was designated as day 0 after induction of pathological conditions.
Clinical scores were evaluated as follows: 0=no symptom, 1=limp tail or hind limb weakness, 2=limp tail and hind limb weakness, 3=partial hind limb paralysis, 4=complete hind limb paralysis, 5=moribund state or death. Weighing was also performed.
Compound 1 (20 mg/kg) was dissolved in distilled water (Otsuka Pharmaceutical Factory, Inc.) and then the solution was orally administered to the EAN model twice a day (administration was started on day 10 after induction of pathological conditions). As a control, distilled water was orally administered to the EAN model. Groups were composed of 2 groups: a solvent administration group (vehicle group); and a compound 1 administration group.
For histopathological evaluation, on day 17 after induction of pathological conditions, the sciatic nerve and the tibial nerve were isolated, and then immersed in a 10% formalin neutral buffer solution. Specimens were sliced and then subjected to hematoxylin-eogin staining, Kliiver-Barrera staining (double staining of Luxol Fast Blue staining and Nissl staining) and immunostaining (IbaI, CD3, NFP and MBP). Specimens were observed under an optical microscope, and then the presence or the absence of T cell and macrophage infiltration, and degeneration of myelin sheaths and axons were evaluated.

[4] = 20 mg/kg oral twice a day, day 17, n = 3

## CN(C)C1CCN(C(=O)C[C@H](O)c2nccn2C)CC1 [Compound 1, (S)-1-(4-(dimethylamino)piperidin-1-yl)-3-hydroxy-3-(1-methyl-1H-imidazol-2-yl)propan-1-one]
[1]
  50% response threshold in von Frey test (mechanical allodynia): significant increase in 50% response threshold
[2]
  cell viability (decrease caused by cisplatin): suppressed decrease
[3]; 20 mg/kg oral twice a day from day 10 after induction
  body weight loss: no body weight loss was induced
[3]; 20 mg/kg oral twice a day from day 10 after induction, vs vehicle group
  clinical scores: Increases in clinical scores were suppressed
[3]; [4]
  number of animals with T cell infiltration, sciatic nerve: 1/3
  number of animals with T cell infiltration, tibial nerve: 0/3
  number of animals with axonal degeneration, sciatic nerve: 0/3
  number of animals with axonal degeneration, tibial nerve: 0/3
  number of animals with macrophage infiltration, sciatic nerve: 1/3
  number of animals with macrophage infiltration, tibial nerve: 0/3
  number of animals with myelin sheath degeneration, sciatic nerve: 0/3
  number of animals with myelin sheath degeneration, tibial nerve: 0/3
